Test results reported in patent US6509351B1, “Phenyl- and pyridyl-tetrahydro-pyridines having TNF inhibiting activity” (Sanofi-Syntelabo, priority 1999, dated 2003).
Counter-ions that a name gives are not always drawn.

Compound | melting point
CCc1cc2ccc(CCN3CC=C(c4cccc(C(F)(F)F)c4)CC3)cc2cn1 (as salt: hydrochloride) | 230 °C
Cc1ccc2ccc(CCN3CC=C(c4cccc(C(F)(F)F)c4)CC3)cc2n1 (as salt: hydrochloride) | 221 °C
